Measurements taken from ChEMBL document CHEMBL5523757, “Discovery, Synthesis, and Activity Evaluation of Novel Five-Membered Sulfur-Containing Heterocyclic Nucleosides as Potential Anticancer Agents In Vitro and In Vivo” (J Med Chem, 2024).

Legend:
Format in all cases: functional, cell-based
[1] = tested on: MCF7; experiment: Antiproliferative activity against human MCF7 cells assessed as inhibition of cell growth incubated for 48 hrs by CCK-8 assay
[2] = tested on: HeLa; experiment: Antiproliferative activity against human HeLa cells assessed as inhibition of cell growth incubated for 48 hrs by CCK-8 assay
[3] = tested on: HCT-116; experiment: Antiproliferative activity against human HCT-116 cells assessed as inhibition of cell growth incubated for 48 hrs by CCK-8 assay
[4] = tested on: A549; experiment: Antiproliferative activity against human A549 cells assessed as inhibition of cell growth incubated for 48 hrs by CCK-8 assay
[5] = tested on: PANC-1; experiment: Antiproliferative activity against human PANC-1 cells assessed as inhibition of cell growth incubated for 48 hrs by CCK-8 assay
[6] = tested on: HepG2; experiment: Antiproliferative activity against human HepG2 cells assessed as inhibition of cell growth incubated for 48 hrs by CCK-8 assay

SMILES	IC50 ([1]; Homo sapiens, MCF7, 48 h) [µM]	IC50 ([2]; Homo sapiens, HeLa, 48 h) [µM]	IC50 ([3]; Homo sapiens, HCT-116, 48 h) [µM]	further results
CCOC(=O)C[C@H]1C[S+]([O-])C[C@]1(C(=O)OCC)n1cnc2c(Cl)nc(Cl)nc21 (stereo not given in full)	25.9	10.5	17.1	
CCOC(=O)C[C@H]1CSC[C@]1(C(=O)OCC)n1cnc2c(Cl)nc(Cl)nc21				IC50 ([4]; a549): > 50 µM; IC50 ([5]; panc-1): 27.5 µM; IC50 ([6]; hepg2): > 50 µM; IC50 ([1]; mcf7): 5.82 µM; IC50 ([2]; hela): 7.43 µM; IC50 ([3]; hct-116): 4.16 µM
CCOC(=O)C[C@@H]1CSC[C@@]1(C(=O)OCC)n1cnc2c(Cl)nc(Cl)nc21	4.54	2.78	3.69	IC50 ([4]; Homo sapiens, A549, 48 h): 41.4 µM; IC50 ([5]; Homo sapiens, PANC-1, 48 h): 11.1 µM; IC50 ([6]; Homo sapiens, HepG2, 48 h): 23.8 µM
CCOC(=O)C[C@H]1CS(=O)(=O)C[C@]1(C(=O)OCC)n1cnc2c(Cl)nc(Cl)nc21	16.2	7.67	11.2	
CCOC(=O)C[C@H]1CSC[C@]1(C(=O)OC)n1cnc2c(Cl)ncnc21 (racemic)	> 50	11.6	19.2	
CCOC(=O)C[C@@H]1CSC[C@]1(C(=O)OC)n1cnc2c(Cl)ncnc21 (racemic)	> 50	12.5	31.8	
CCOC(=O)C[C@@H]1CSC[C@]1(C(=O)OCC)n1cnc2c(N3CCCC3)ncnc21 (racemic)	> 50	> 50	> 50	
CCOC(=O)C[C@H]1CSC[C@]1(C(=O)OCC)n1cnc2c(N3CCCC3)ncnc21 (racemic)	> 50	> 50	> 50	
CCOC(=O)C[C@@H]1CSC[C@]1(C(=O)OCC)n1cnc2c(OC)ncnc21 (racemic)	> 50	> 50	> 50	
CCOC(=O)C[C@@H]1CSC[C@]1(C(=O)OCC)n1cnc2c(-c3ccccc3)ncnc21 (racemic)	19.4	42.9	25.1	
CCOC(=O)C[C@@H]1CSC[C@]1(C(=O)OCC)n1cnc2cnc(Cl)nc21 (racemic)	> 50	> 50	> 50	
CCOC(=O)C[C@H]1CSC[C@]1(C(=O)OCC)n1cnc2c(OC)ncnc21 (racemic)	> 50	> 50	> 50	
CCOC(=O)C[C@@H]1CSC[C@]1(C(=O)OCC)n1cnc2c(N3CCCCC3)ncnc21 (racemic)	42.2	> 50	32	
CCOC(=O)C[C@@H]1CSC[C@]1(C(=O)OCC)n1cnc2c(N(C)C)ncnc21 (racemic)	> 50	> 50	> 50	
CCOC(=O)C[C@@H]1CSC[C@]1(C(=O)OCC)n1cnc2c(Cl)nc(Cl)nc21 (racemic)	4.06	9.5	6.89	
CCOC(=O)C[C@@H]1CSC[C@]1(C(=O)OC(C)C)n1cnc2c(Cl)ncnc21 (racemic)	44.8	13.6	38.2	
CCOC(=O)C[C@H]1CSC[C@]1(C(=O)OCC)n1cnc2cnc(Cl)nc21 (racemic)	> 50	> 50	> 50	
CCCSc1ncnc2c1ncn2[C@@]1(C(=O)OCC)CSC[C@H]1CC(=O)OCC (racemic)	23.5	> 50	38.5	
CCOC(=O)C[C@@H]1CSC[C@]1(C(=O)OCC)n1cnc2c(OCc3ccccc3)ncnc21 (racemic)	> 50	> 50	> 50	
CCOC(=O)C[C@H]1CSC[C@]1(C(=O)OCC)n1cnc2c(-c3ccccc3)ncnc21 (racemic)	> 50	26.2	17.3	
CCOC(=O)C[C@H]1CSC[C@]1(C(=O)OCC)n1cnc2c(OCC)ncnc21 (racemic)	> 50	> 50	> 50	
CCOC(=O)C[C@H]1CSC[C@]1(C(=O)OCC)n1cnc2c(N(CC)CC)ncnc21 (racemic)	> 50	> 50	> 50	

SMILES	IC50 ([1]; Homo sapiens, MCF7, 48 h) [µM]	IC50 ([2]; Homo sapiens, HeLa, 48 h) [µM]	IC50 ([3]; Homo sapiens, HCT-116, 48 h) [µM]	further results
CCOC(=O)C[C@H]1CSC[C@]1(C(=O)OCC)n1cnc2c(Br)ncnc21 (racemic)	19.4	14.4	30.1	
CCOC(=O)C[C@H]1CSC[C@]1(C(=O)OCC)n1cnc2c(N(C)C)ncnc21 (racemic)	> 50	> 50	> 50	
CCOC(=O)C[C@H]1CSC[C@]1(C(=O)OCC)n1cnc2c(Cl)nc(F)nc21 (racemic)	22.9	8.8	11	
CCOC(=O)C[C@H]1CSC[C@]1(C(=O)OC(C)C)n1cnc2c(Cl)ncnc21 (racemic)	13	9.99	14.7	
CCOC(=O)C[C@H]1CSC[C@]1(C(=O)OCC)n1cnc2c(Cl)ncnc21 (racemic)	12	6.81	15.5	
CCOC(=O)C[C@@H]1CSC[C@]1(C(=O)OCC)n1cnc2c(Cl)ncnc21 (racemic)	43.5	12.5	19.4	
CCOC(=O)C[C@@H]1CSC[C@]1(C(=O)OCC)n1cnc2cncnc21 (racemic)	> 50	> 50	> 50	
CCOC(=O)C[C@H]1CSC[C@]1(C(=O)OCC)n1cnc2cncnc21 (racemic)	> 50	> 50	> 50	
CCOC(=O)C[C@@H]1CSC[C@]1(C(=O)OCC)n1cnc2c(Cl)nc(F)nc21 (racemic)	27.9	14.5	15.9	
CCOC(=O)C[C@@H]1CSC[C@]1(C(=O)OCC)n1cnc2c(OCC)ncnc21 (racemic)	> 50	> 50	19.8	
CCCSc1ncnc2c1ncn2[C@@]1(C(=O)OCC)CSC[C@@H]1CC(=O)OCC (racemic)	30.9	37.2	25.9	
CCOC(=O)C[C@H]1CSC[C@]1(C(=O)OCC)n1cnc2c(N3CCOCC3)ncnc21 (racemic)	> 50	> 50	> 50	
CCOC(=O)C[C@@H]1CSC[C@]1(C(=O)OCC)n1cnc2c(N3CCCCC3)nc(Cl)nc21 (racemic)	34	> 50	> 50	
CCOC(=O)C[C@H]1CSC[C@]1(C(=O)OCC)n1cnc2c(OCc3ccccc3)ncnc21 (racemic)	12.7	13.7	13.2	
CCOC(=O)C[C@@H]1CSC[C@]1(C(=O)OCC)n1cnc2c(Br)ncnc21 (racemic)	> 50	49.6	> 50	
CCOC(=O)C[C@H]1CSC[C@]1(C(=O)OCC)n1cnc2c(N3CCCC3)nc(Cl)nc21 (racemic)	38.3	> 50	46.6	
CCOC(=O)C[C@H]1CSC[C@]1(C(=O)OCC)n1cnc2c(N3CCCCC3)nc(Cl)nc21 (racemic)	> 50	22.4	22.6	
CCOC(=O)C[C@@H]1CSC[C@]1(C(=O)OCC)n1cnc2c(N(CC)CC)ncnc21 (racemic)	> 50	> 50	41.5	
CCOC(=O)C[C@@H]1CSC[C@]1(C(=O)OCC)n1cnc2c(N3CCCC3)nc(Cl)nc21 (racemic)	> 50	38.3	34	
CCOC(=O)C[C@@H]1CSC[C@]1(C(=O)OCC)n1cnc2c(N3CCOCC3)ncnc21 (racemic)	> 50	> 50	> 50	
CCOC(=O)C[C@H]1CSC[C@]1(C(=O)OCC)n1cnc2c(N3CCCCC3)ncnc21 (racemic)	23.8	> 50	22.8	
O=c1[nH]cc(F)c(=O)[nH]1 [FLUOROURACIL]	11.6	9.75	8.75	IC50 ([5]; Homo sapiens, PANC-1, 48 h): 44.1 µM; IC50 ([6]; Homo sapiens, HepG2, 48 h): 12.9 µM
